From PubChem BioAssay (NCI)
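Test compounds were applied to cells in 96-well plates for 48 hours at 5 doses. The concentration for 50% growth inhibition is given as GI50. The concentration for full growth arrest is given as TGI.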

Experiments:
Assay in all cases: NCI-60 cell line screen, 48 h
SR leukemia = system: SR leukemia
SF-539 CNS = system: SF-539 CNS
HCC-2998 colon = system: HCC-2998 colon
SF-295 CNS = system: SF-295 CNS
SK-MEL-28 melanoma = system: SK-MEL-28 melanoma
NCI-H522 lung = system: NCI-H522 lung
SK-MEL-2 melanoma = system: SK-MEL-2 melanoma
CAKI-1 renal = system: CAKI-1 renal
MCF7 breast = system: MCF7 breast
MDA-MB-231 breast = system: MDA-MB-231 breast
PC-3 prostate = system: PC-3 prostate
BT-549 breast = system: BT-549 breast
A549 NSCLC = system: A549 NSCLC
SK-OV-3 ovarian = system: SK-OV-3 ovarian
MALME-3M melanoma = system: MALME-3M melanoma
786-0 renal = system: 786-0 renal
OVCAR-5 ovarian = system: OVCAR-5 ovarian
HCT-116 colon = system: HCT-116 colon
SF-268 CNS = system: SF-268 CNS
SK-MEL-5 melanoma = system: SK-MEL-5 melanoma
LOX IMVI melanoma = system: LOX IMVI melanoma
EKVX NSCLC = system: EKVX NSCLC
SW-620 colon = system: SW-620 colon
M14 melanoma = system: M14 melanoma
MDA-MB-435 = system: MDA-MB-435
HOP-62 NSCLC = system: HOP-62 NSCLC
COLO 205 colon = system: COLO 205 colon
DU-145 prostate = system: DU-145 prostate
ACHN renal = system: ACHN renal
TK-10 renal = system: TK-10 renal
T-47D breast = system: T-47D breast
HS 578T breast = system: HS 578T breast
UACC-257 melanoma = system: UACC-257 melanoma
NCI-H460 lung = system: NCI-H460 lung
UACC-62 melanoma = system: UACC-62 melanoma
U251 CNS = system: U251 CNS
HT29 colon = system: HT29 colon
OVCAR-4 ovarian = system: OVCAR-4 ovarian
HCT-15 colon = system: HCT-15 colon
A498 renal = system: A498 renal
HOP-92 NSCLC = system: HOP-92 NSCLC
KM12 colon = system: KM12 colon
OVCAR-3 ovarian = system: OVCAR-3 ovarian
SNB-75 CNS = system: SNB-75 CNS
RXF 393 renal = system: RXF 393 renal
UO-31 renal = system: UO-31 renal

CCNCCNc1cc(-c2ccc(Cl)c(Cl)c2)c(C#N)c2nc3ccccc3n12
GI50 (SR leukemia): 287 nM | TGI (SR leukemia): > 100000 nM | GI50 (SF-539 CNS): 224 nM | TGI (SF-539 CNS): 580 nM | GI50 (HCC-2998 colon): 1690 nM | TGI (HCC-2998 colon): 3210 nM | GI50 (SF-295 CNS): 1810 nM | TGI (SF-295 CNS): 3240 nM | GI50 (SK-MEL-28 melanoma): 1900 nM | TGI (SK-MEL-28 melanoma): 3540 nM | GI50 (NCI-H522 lung): 1320 nM | TGI (NCI-H522 lung): 2800 nM | GI50 (SK-MEL-2 melanoma): 1580 nM | TGI (SK-MEL-2 melanoma): 3070 nM | GI50 (CAKI-1 renal): 1560 nM | TGI (CAKI-1 renal): 2900 nM | GI50 (MCF7 breast): 1010 nM | TGI (MCF7 breast): 2460 nM | GI50 (MDA-MB-231 breast): 1210 nM | TGI (MDA-MB-231 breast): 2710 nM | GI50 (PC-3 prostate): 1660 nM | TGI (PC-3 prostate): 3190 nM | GI50 (BT-549 breast): 1540 nM | TGI (BT-549 breast): 2900 nM | GI50 (A549 NSCLC): 1430 nM | TGI (A549 NSCLC): 3010 nM | GI50 (SK-OV-3 ovarian): 1790 nM | TGI (SK-OV-3 ovarian): 3230 nM | GI50 (MALME-3M melanoma): 1760 nM | TGI (MALME-3M melanoma): 3410 nM | GI50 (786-0 renal): 1660 nM | TGI (786-0 renal): 3180 nM | GI50 (OVCAR-5 ovarian): 1870 nM | TGI (OVCAR-5 ovarian): 3550 nM | GI50 (HCT-116 colon): 278 nM | TGI (HCT-116 colon): 1080 nM | GI50 (SF-268 CNS): 1710 nM | TGI (SF-268 CNS): 3330 nM | GI50 (SK-MEL-5 melanoma): 1710 nM | TGI (SK-MEL-5 melanoma): 3120 nM | GI50 (LOX IMVI melanoma): 1210 nM | TGI (LOX IMVI melanoma): 2530 nM | GI50 (EKVX NSCLC): 1750 nM | TGI (EKVX NSCLC): 3330 nM | GI50 (SW-620 colon): 578 nM | TGI (SW-620 colon): 2070 nM | GI50 (M14 melanoma): 1720 nM | TGI (M14 melanoma): 3240 nM | GI50 (MDA-MB-435): 1700 nM | TGI (MDA-MB-435): 3140 nM | GI50 (HOP-62 NSCLC): 1620 nM | TGI (HOP-62 NSCLC): 3180 nM | GI50 (COLO 205 colon): 421 nM | TGI (COLO 205 colon): 1630 nM | GI50 (DU-145 prostate): 1440 nM | TGI (DU-145 prostate): 2760 nM | GI50 (ACHN renal): 1390 nM | TGI (ACHN renal): 2870 nM | GI50 (TK-10 renal): 1690 nM | TGI (TK-10 renal): 3110 nM | GI50 (T-47D breast): 1430 nM | TGI (T-47D breast): 3200 nM | GI50 (HS 578T breast): 1900 nM | TGI (HS 578T breast): 4430 nM | GI50 (UACC-257 melanoma): 1890 nM | TGI (UACC-257 melanoma): 3520 nM | GI50 (NCI-H460 lung): 485 nM | TGI (NCI-H460 lung): 1910 nM | GI50 (UACC-62 melanoma): 1820 nM | TGI (UACC-62 melanoma): 3560 nM | GI50 (U251 CNS): 757 nM | TGI (U251 CNS): 2150 nM | GI50 (HT29 colon): 369 nM | TGI (HT29 colon): 1420 nM | GI50 (OVCAR-4 ovarian): 1230 nM | TGI (OVCAR-4 ovarian): 2530 nM | GI50 (HCT-15 colon): 629 nM | TGI (HCT-15 colon): 1920 nM | GI50 (A498 renal): 1380 nM | TGI (A498 renal): 2880 nM | GI50 (HOP-92 NSCLC): 1670 nM | TGI (HOP-92 NSCLC): 3280 nM | GI50 (KM12 colon): 1600 nM | TGI (KM12 colon): 3150 nM | GI50 (OVCAR-3 ovarian): 248 nM | TGI (OVCAR-3 ovarian): 580 nM | GI50 (SNB-75 CNS): 1460 nM | TGI (SNB-75 CNS): 2960 nM | GI50 (RXF 393 renal): 1500 nM | TGI (RXF 393 renal): 2940 nM | GI50 (UO-31 renal): 1600 nM | TGI (UO-31 renal): 3120 nM
